According to US10329336B2, “Antimicrobial kinocidin compositions and methods of use” (LA Biomedical Research Institute at Harbor-UCLA Medical …, priority 2006, dated 2019):

Legend:
[1] = system: Candida albicans (ATCC 36082); assay: Solid-phase antimicrobial assay of kinocidins; type: cell-based; conditions: C. albicans; pH 5.5 or 7.5, not separated; 0.5 nmol/well
Procedure: (§1) Peptides (0.5 nmol) were introduced into wells in agarose plates buffered with MES (2.0 mM, pH 5.5) or PIPES (10.0 mM, pH 7.5). Antimicrobial activity was assessed as the zone of complete (blue) or partial (red) inhibition around the well. Abbreviations are: Native IL-8 (IL-8); IL-8α, (α); IL-8γ, (γ); IL-8α+IL-8γ (α+γ); RANTES, (RAN); GRO-α, (GRO); MCP-1, (MCP); lymphotactin, (LYM); platelet factor-4, (PF-4); and HNP-1, (HNP). Histograms are means±SEM (minimum n=2).
(§2) Briefly, the antimicrobial assays were performed against a panel of prototype human pathogens as previously detailed (Yoshimura, T., Matsushima, K., Tanaka, S., Robinson, E. A., Appella, E., Oppenheim, J. J. & Leonard, E. J. (1987) Proc Natl Acad Sci USA 84, 9233-7): Staphylococcus aureus (ATCC 27217; Gram-positive bacterium); Salmonella typhimurium (5996s; Gram-negative bacterium); and the fungus Candida albicans (ATCC 36082). Defensin HNP-1 was included in each assay as an internal control, and all assays were conducted a minimum of two independent times. Results of independent assays were analyzed using Wilcoxon Rank Sum analysis with Bonferroni correction for multiple comparisons.
(§3) For the Solid-Phase Assay, mid-logarithmic phase organisms were prepared, introduced into buffered agarose (PIPES [10 mM, pH 7.5] or MES [2.0 mM, pH 5.5]) to achieve final inocula of 10^6 CFU/ml, and poured into plates. Peptides (0.5 nmol/well [50 nmol/ml]) were added to wells in the seeded matrix, and incubated for 3h at 37° C. Nutrient overlay medium was applied, and assays incubated at 37° C. or 30° C. for bacteria or fungi, respectively. After 24h, zones of inhibition were measured, and results recorded as zones of complete or partial inhibition.

[2] = system: Salmonella typhimurium (5996s); assay: Solid-phase antimicrobial assay of kinocidins; type: cell-based; conditions: S. typhimurium (Gram-negative); pH 5.5 or 7.5, not separated; 0.5 nmol/well
Procedure: as §1, §2, §3

[3] = system: Staphylococcus aureus (ATCC 27217); assay: Solid-phase antimicrobial assay of kinocidins; type: cell-based; conditions: S. aureus (Gram-positive); pH 5.5 or 7.5, not separated; 0.5 nmol/well
Procedure: as §1, §2, §3

[4] = system: C. albicans ATCC 36082; assay: Solution-phase microbicidal assay; type: cell-based, Candida albicans
Procedure: One million CFU of the indicated microorganism per milliliter were incubated with peptide (0.00125-20.0 nmol/ml) in either MES (2.0 mM, pH 5.5) or PIPES (10.0 mM, pH 7.5) for one hour at 37° C. Surviving CFU were enumerated and are described as change in the initial log 10 CFU. ∘, S. aureus ATCC 27217; ●, S. typhimurium strain 5990s; □, C. albicans ATCC 36082. Data are means±SD (minimum n=2).
as §2
To characterize IL-8's antimicrobial activity in more detail, a quantitative solution-phase assay was carried out at pH 5.5 and 7.5. Organisms were prepared and adjusted to 10^6 CFU/ml in PIPES or MES buffer as above but lacking agarose, and dispensed (5×10^4 CFU per 50 μl aliquot). Peptide (concentration range, 20-0.00125 nmol/ml) was introduced into the assay medium, and incubated for 1 hour at 37° C. After incubation, media were serially diluted and plated in triplicate for enumeration. […] IL-8 was also fungicidal for C. albicans at pH 7.5, with a 2-log reduction in surviving CFU over 1 hour at a concentration of 2.5 nmol/ml.

[5] = system: Escherichia coli strain ML-35; assay: Ex vivo biomatrix assay in human whole blood, plasma and serum; type: cell-based
Text: FIG. 18A-B show antimicrobial efficacy of IL-8α in human blood and blood-derived matrices as compared with artificial media (MHB) at pH 5.5 and 7.2. […] The E. coli inocula (INOC) were 10^5 CFU/ml, and the threshold of sensitivity was considered 0.3 log 10 CFU/ml.
To assess the physiological relevance of the observed in vitro (solid and solution-phase) antimicrobial activity for IL-8 and IL-8α, we assessed the efficacy of IL-8α in the ex vivo biomatrix assay. This assay has been developed to assess antimicrobial polypeptide efficacy in complex human blood matrices. Antimicrobial activity of IL-8α in human whole blood and homologous plasma and serum fractions was assessed (Yeaman, M. R., Gank, K. D., Bayer, A. S., and Brass, E. P. (2002) Antimicrob Agents Chemother 46, 3883-3891). For biomatrix studies, the well-characterized Escherichia coli strain ML-35 was used as the target organism (Lehrer, R. I., Barton, A., Daher, K, A., Harwig, S. S., Ganz, T., and Selsted, M. E. (1989) J Clin Invest 84, 553-561). This strain is resistant to serum, ideal for use in assessing peptide antimicrobial activity in blood and blood-derived matrices (Yeaman, M. R., Gank, K. D., Bayer, A. S., and Brass, E. P. (2002) Antimicrob Agents Chemother 46, 3883-3891). Organisms were cultured to mid-logarithmic phase in brain-heart infusion broth (Difco Laboratories, Detroit, Mich.) at 37° C., washed, and resuspended in PBS (Irvine Scientific; pH 7.2). Inocula were quantified spectrophotometrically and validated by quantitative culture. Biomatrices were distributed in 85-l aliquots into 96-well microtiter plates (Corning Glass Works, Corning, N.Y.) Peptide (5l; concentration range 1.0-50.0 μg/ml) was added either simultaneously with the microorganism (10 μl; 10^5 CFU/ml), or after a 120 min pre-incubation period in the biomatrix. The mixtures were incubated with constant agitation for 2 h at 37° C. After incubation, aliquots were diluted and quantitatively cultured in triplicate onto blood agar. Surviving organisms were enumerated as CFU/ml. […]

## KENWVQRVVEKFLKRAENS [IL-8α, synthetic α-helix domain of IL-8 (CXCL8)]
[1]
  antifungal activity (zone of inhibition): virtually indistinguishable from that of the native molecule
[2]
  antimicrobial activity (zone of inhibition): virtually indistinguishable from that of the native molecule
[3]
  antimicrobial activity (zone of inhibition): virtually indistinguishable from that of the native molecule
[4]; C. albicans, solution-phase
  activity relative to native IL-8, by mass: 10 fold
[4]; pH 5.5, 0.125 nmol/ml (1.0 μg/ml), 1 hour exposure
  reduction in surviving C. albicans: five
[5]; 10 μg/ml peptide, human blood and blood-derived matrices, 2 h at 37° C.
  decrease in E. coli CFU: ≤ 5 log CFU/ml
[5]; plasma fractions or after 2 hour preincubation
  antimicrobial efficacy in biomatrix: less activity
[5]; whole blood and serum, co-incubation
  antimicrobial efficacy in biomatrix: Greatest efficacy
